Source: doi:10.1101/2021.04.08.439011v1 (biorxiv, 2021)
Read-outs that look alike come from different tables or passages of the source.

What was measured:
PRKCE = PRKCE (Homo sapiens, UniProt Q02156); details: 0.1 µM; binder
PIP5K1A = PIP5K1A (Homo sapiens, UniProt Q99755); details: 0.1 µM; binder
RET = RET (Homo sapiens, UniProt P07949); details: 0.1 µM; binder
NEK10 = NEK10 (Homo sapiens, UniProt Q6ZWH5); details: 0.1 µM; binder
FLT3(R834Q) = FLT3(R834Q) (Homo sapiens, UniProt P36888, R834Q); details: 0.1 µM; binder
EPHA6 = EPHA6 (Homo sapiens, UniProt Q9UF33); details: 0.1 µM; binder
TAOK2 = TAOK2 (Homo sapiens, UniProt Q9UL54); details: 0.1 µM; binder
ADCK3 = ADCK3 (Homo sapiens, UniProt Q8NI60); details: 0.1 µM; binder
NDR1 = NDR1 (Homo sapiens, UniProt Q15208); details: 0.1 µM; binder
GSK3A = GSK3A (Homo sapiens, UniProt P49840); details: 0.1 µM; binder
LOK = LOK (Homo sapiens, UniProt O94804); details: 0.1 µM; binder
CSK = CSK (Homo sapiens, UniProt P41240); details: 0.1 µM; binder
ABL1(F317L) = ABL1(F317L) (Homo sapiens, UniProt P00519, F317L); details: 0.1 µM, binder
CSNK1G3 = CSNK1G3 (Homo sapiens, UniProt Q9Y6M4); details: 0.1 µM; binder
PIKFYVE = PIKFYVE (Homo sapiens, UniProt Q9Y2I7); details: 0.1 µM; binder
PIK3CA(E545K) = PIK3CA(E545K) (Homo sapiens, UniProt P42336, E545K); details: 0.1 µM; binder
CLK2 = CLK2 (Homo sapiens, UniProt P49760); details: 0.1 µM; binder
AAK1 = AAK1 (Homo sapiens, UniProt Q2M2I8); details: 0.1 µM; binder
DSTYK = DSTYK (Homo sapiens, UniProt Q6XUX3); details: 0.1 µM; binder
CSNK2A2 = CSNK2A2 (Homo sapiens, UniProt P19784); details: 0.1 µM; binder
PDGFRA = PDGFRA (Homo sapiens, UniProt P16234); details: 0.1 µM; binder
ACVR2A = ACVR2A (Homo sapiens, UniProt P27037); details: 0.1 µM; binder
NEK11 = NEK11 (Homo sapiens, UniProt Q8NG66); details: 0.1 µM; binder
ERK1 = ERK1 (Homo sapiens, UniProt P27361); details: 0.1 µM; binder
EPHB2 = EPHB2 (Homo sapiens, UniProt P29323); details: 0.1 µM; binder
FLT3(ITD,D835V) = FLT3(ITD,D835V) (Homo sapiens, UniProt P36888, D835V/ITD); details: 0.1 µM; binder
MAP3K3 = MAP3K3 (Homo sapiens, UniProt Q99759); details: 0.1 µM; binder
PRKG1 = PRKG1 (Homo sapiens, UniProt Q13976); details: 0.1 µM; binder
PIM2 = PIM2 (Homo sapiens, UniProt Q9P1W9); details: 0.1 µM; binder
ERBB2 = ERBB2 (Homo sapiens, UniProt P04626); details: 0.1 µM; binder
MYLK3 = MYLK3 (Homo sapiens, UniProt Q32MK0); details: 0.1 µM; binder

Chain of ABL1(F317L) (P00519 whole entry F317L): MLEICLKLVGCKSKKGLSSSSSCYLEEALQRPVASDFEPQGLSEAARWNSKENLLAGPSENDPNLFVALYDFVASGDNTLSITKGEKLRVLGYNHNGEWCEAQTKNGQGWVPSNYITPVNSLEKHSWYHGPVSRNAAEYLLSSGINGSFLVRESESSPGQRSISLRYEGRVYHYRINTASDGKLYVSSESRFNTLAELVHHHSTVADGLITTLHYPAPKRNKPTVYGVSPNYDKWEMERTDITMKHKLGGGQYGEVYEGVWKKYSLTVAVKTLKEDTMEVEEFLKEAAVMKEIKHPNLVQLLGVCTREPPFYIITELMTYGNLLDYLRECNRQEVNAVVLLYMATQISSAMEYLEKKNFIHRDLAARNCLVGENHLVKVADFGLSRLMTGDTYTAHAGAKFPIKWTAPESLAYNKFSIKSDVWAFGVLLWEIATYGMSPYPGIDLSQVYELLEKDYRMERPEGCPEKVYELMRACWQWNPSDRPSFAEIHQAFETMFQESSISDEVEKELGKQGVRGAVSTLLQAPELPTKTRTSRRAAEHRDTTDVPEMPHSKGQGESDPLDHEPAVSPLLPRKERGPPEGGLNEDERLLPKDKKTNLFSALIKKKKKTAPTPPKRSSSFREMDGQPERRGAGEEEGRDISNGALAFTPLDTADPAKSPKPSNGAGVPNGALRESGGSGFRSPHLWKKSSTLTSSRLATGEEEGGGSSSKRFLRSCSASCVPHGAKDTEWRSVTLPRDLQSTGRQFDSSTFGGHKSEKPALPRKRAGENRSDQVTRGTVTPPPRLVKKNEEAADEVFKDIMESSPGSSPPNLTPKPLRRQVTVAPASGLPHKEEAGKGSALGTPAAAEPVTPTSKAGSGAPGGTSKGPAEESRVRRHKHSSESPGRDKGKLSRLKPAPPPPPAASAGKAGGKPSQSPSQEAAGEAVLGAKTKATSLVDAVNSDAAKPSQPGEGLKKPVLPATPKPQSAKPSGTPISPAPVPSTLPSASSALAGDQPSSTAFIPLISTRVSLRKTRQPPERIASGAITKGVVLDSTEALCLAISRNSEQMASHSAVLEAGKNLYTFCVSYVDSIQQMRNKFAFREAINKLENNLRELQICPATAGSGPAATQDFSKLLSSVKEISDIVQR
Chain of PRKCE (Q02156 whole entry): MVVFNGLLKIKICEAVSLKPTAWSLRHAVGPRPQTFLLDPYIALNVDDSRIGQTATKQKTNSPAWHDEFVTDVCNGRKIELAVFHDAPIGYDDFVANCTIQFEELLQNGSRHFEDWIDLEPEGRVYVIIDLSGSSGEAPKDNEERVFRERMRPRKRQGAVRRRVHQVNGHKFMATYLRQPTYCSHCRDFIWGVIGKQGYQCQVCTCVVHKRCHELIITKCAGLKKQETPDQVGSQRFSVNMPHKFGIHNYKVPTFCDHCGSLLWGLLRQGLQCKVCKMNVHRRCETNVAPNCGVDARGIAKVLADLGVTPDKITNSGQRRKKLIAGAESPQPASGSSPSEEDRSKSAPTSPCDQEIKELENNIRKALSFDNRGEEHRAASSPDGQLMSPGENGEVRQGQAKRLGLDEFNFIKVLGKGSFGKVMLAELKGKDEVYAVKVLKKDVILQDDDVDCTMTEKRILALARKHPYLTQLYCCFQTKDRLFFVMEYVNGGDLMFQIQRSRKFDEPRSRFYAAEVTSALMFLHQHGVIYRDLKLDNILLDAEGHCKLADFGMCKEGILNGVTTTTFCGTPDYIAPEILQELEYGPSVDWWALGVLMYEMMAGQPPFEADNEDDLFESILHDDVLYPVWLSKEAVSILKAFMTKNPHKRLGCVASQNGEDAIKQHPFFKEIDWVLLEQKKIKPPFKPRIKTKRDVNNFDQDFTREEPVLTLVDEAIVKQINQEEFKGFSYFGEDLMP
Chain of PIKFYVE (Q9Y2I7 whole entry): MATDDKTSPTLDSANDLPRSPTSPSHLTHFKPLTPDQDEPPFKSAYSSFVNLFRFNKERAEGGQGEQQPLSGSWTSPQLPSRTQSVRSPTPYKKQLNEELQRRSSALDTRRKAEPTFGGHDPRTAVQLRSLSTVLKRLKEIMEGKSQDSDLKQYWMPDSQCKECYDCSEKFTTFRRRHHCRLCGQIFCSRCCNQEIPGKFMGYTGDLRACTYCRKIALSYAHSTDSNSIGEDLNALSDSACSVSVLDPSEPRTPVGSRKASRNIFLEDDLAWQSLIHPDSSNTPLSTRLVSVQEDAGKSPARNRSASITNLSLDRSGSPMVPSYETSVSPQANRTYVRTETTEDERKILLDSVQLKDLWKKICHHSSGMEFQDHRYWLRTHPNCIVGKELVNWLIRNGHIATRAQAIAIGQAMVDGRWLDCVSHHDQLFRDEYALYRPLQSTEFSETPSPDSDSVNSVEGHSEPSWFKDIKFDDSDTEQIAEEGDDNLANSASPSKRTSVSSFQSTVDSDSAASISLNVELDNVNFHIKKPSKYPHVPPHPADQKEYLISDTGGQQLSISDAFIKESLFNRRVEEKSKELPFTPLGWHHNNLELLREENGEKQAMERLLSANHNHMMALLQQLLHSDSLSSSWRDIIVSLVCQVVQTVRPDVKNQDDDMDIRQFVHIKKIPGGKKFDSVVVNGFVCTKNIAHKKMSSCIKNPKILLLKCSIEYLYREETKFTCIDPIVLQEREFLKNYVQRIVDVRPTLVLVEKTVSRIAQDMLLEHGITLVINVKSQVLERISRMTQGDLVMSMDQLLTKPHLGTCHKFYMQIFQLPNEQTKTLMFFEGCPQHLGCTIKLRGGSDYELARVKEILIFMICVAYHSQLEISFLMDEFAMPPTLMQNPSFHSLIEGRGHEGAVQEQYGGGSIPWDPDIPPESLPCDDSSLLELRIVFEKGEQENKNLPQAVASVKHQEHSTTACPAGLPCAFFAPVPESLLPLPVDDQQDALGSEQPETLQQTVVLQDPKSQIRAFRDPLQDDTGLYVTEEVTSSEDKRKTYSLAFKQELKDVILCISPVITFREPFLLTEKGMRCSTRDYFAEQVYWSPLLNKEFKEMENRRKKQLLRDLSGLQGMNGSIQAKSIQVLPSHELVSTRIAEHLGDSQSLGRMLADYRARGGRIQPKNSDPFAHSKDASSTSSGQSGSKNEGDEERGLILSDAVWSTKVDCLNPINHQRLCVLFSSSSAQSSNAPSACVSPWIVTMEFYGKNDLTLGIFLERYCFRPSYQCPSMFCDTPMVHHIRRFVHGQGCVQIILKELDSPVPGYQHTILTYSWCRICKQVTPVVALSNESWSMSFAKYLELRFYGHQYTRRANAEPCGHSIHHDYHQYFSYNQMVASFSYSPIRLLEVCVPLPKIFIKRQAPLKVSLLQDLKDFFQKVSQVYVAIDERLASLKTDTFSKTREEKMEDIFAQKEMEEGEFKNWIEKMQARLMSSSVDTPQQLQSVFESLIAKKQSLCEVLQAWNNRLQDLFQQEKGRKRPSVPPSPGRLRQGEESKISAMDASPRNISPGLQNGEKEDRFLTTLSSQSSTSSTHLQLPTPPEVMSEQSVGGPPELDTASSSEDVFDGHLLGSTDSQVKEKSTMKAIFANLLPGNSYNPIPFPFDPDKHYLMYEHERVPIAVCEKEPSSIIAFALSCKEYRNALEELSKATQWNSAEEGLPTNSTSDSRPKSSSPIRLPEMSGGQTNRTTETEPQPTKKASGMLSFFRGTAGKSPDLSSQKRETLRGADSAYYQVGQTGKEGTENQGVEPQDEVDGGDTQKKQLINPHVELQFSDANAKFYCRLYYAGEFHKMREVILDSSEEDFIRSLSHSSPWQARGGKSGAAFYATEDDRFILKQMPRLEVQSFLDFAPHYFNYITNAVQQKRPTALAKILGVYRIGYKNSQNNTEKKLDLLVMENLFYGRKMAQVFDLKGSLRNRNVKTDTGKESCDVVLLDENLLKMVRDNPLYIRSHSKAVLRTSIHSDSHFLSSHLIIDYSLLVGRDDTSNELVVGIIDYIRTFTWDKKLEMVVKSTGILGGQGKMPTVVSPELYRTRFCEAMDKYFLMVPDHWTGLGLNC
Chain of ACVR2A (P27037 whole entry): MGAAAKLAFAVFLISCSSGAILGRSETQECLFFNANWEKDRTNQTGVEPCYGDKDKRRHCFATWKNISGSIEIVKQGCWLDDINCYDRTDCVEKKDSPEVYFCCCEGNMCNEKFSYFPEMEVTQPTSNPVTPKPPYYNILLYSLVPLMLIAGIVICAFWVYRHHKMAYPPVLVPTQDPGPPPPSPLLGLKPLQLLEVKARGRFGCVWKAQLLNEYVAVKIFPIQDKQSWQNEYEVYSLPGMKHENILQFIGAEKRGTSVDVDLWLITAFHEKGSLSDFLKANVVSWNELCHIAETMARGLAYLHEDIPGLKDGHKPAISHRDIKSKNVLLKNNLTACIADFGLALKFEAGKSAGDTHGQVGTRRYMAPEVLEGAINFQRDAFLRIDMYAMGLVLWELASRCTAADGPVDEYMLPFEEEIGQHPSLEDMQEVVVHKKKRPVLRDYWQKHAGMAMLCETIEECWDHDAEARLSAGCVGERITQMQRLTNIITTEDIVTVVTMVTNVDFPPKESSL
Chain of PIM2 (Q9P1W9 whole entry): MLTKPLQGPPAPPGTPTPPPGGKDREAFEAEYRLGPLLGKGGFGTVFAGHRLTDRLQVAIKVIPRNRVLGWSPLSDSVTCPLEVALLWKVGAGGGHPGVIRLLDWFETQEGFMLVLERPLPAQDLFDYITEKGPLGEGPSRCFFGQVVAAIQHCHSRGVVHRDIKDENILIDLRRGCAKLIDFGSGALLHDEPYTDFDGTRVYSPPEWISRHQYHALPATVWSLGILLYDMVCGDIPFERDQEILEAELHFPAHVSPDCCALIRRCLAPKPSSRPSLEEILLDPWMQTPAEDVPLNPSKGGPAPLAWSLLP

CNc1ncc2cc(-c3ccc(-c4cccc(C)n4)cc3Cl)c(=O)n(C[C@H]3OC[C@H](N)CO3)c2n1 [compound 6, G-5555]
Percent Control (PRKCE): 95% | Percent Control (PIP5K1A): 48% | Percent Control (RET): 96% | Percent Control (NEK10): 91% | Percent Control (FLT3(R834Q)): 96% | Percent Control (EPHA6): 100% | Percent Control (TAOK2): 99% | Percent Control (ADCK3): 100% | Percent Control (NDR1): 97% | Percent Control (GSK3A): 100% | Percent Control (LOK): 37% | Percent Control (CSK): 100% | Percent Control (ABL1(F317L); nonphosphorylated): 100% | Percent Control (ABL1(F317L); phosphorylated): 95% | Percent Control (CSNK1G3): 100% | Percent Control (PIKFYVE): 100% | Percent Control (PIK3CA(E545K)): 85% | Percent Control (CLK2): 100% | Percent Control (AAK1): 100% | Percent Control (DSTYK): 90% | Percent Control (CSNK2A2): 96% | Percent Control (PDGFRA): 100% | Percent Control (ACVR2A): 100% | Percent Control (NEK11): 100% | Percent Control (ERK1): 100% | Percent Control (EPHB2): 100% | Percent Control (FLT3(ITD,D835V)): 88% | Percent Control (MAP3K3): 86% | Percent Control (PRKG1): 100% | Percent Control (PIM2): 100% | Percent Control (ERBB2): 100% | Percent Control (MYLK3): 74%
